Legend:
[1] = target: T1, ER-α in MCF-7 cells harboring ER wild type (Homo sapiens, UniProt P03372); assay: ER-α degradation (SERD) assay, MCF-7 wild type; type: cell-based; settings: MCF-7 Wt, 1 nM; for % of ER-α remaining at 1 nM: 4 days, western blot, vehicle control as 100%
T1 construct: evaluated in MCF-7 cells harboring ER wild type; endogenous in cells; host or cells: MCF-7
T1 sequence (P03372 1-595): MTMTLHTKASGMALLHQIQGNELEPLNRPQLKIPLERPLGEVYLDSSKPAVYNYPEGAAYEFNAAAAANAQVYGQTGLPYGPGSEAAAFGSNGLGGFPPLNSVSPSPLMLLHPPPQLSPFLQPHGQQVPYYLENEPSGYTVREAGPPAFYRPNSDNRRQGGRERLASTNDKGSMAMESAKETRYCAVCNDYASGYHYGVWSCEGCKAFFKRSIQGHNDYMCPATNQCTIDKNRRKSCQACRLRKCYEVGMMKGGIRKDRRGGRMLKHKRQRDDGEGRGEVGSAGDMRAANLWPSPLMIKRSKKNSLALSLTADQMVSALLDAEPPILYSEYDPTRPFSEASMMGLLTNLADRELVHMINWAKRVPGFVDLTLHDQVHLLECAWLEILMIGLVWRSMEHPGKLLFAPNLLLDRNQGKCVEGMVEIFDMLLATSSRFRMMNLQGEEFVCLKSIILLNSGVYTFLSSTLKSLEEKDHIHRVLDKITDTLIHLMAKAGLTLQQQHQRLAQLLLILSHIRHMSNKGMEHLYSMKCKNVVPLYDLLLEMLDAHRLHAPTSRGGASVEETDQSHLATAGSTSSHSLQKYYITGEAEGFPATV
Experimental: Selective Estrogen Receptor Degradation (SERD) Assay:
The SERD activity for the test compounds was evaluated in MCF-7 cells harboring ER wild type, and MCF-7 cells harboring mutant ER (WT/D538G and WT/Y537S). Briefly, cells were plated in phenol red free RPMI1640 medium supplemented with 5% charcoal stripped fetal bovine serum. The seeding density was 40000 cells/well for MCF-7 WT and MCF-7 D538G and 50000 cells/well MCF-7 Y537S in a 48-well plate. Following overnight incubation, the cells were treated with varying concentrations of test compounds (final concentration: 1000 nM to 0.01 nM, 0.1% DMSO) for 4 days. The cells were lysed using PBS supplemented with 1 mM EDTA, 0.5% Triton X-100, 5 mM NaF, 6 M urea, and 1× Protease inhibitor cocktail. The lysate was analyzed for ER alpha protein using western blot. For the western blot, the cell lysate (12.5-40 μg total protein) was resolved on a 10% SDS PAGE and transferred onto a PVDF membrane. The blots were blocked using 5% skim milk powder in 0.1% PBS-T for 1 hour at room temperature, followed by co-incubation with rabbit anti-human β-actin antibody and rabbit anti-human ERα antibody for 2 hours at room temperature. The blots were subsequently probed with anti-rabbit IgG-HRP conjugate as secondary antibody for 1 hour at room temperature. The blots were developed by using West Pico Super Signal Chemiluminescence substrate and the bands were processed for densitometry analysis using Image Lab software (BioRad version 6.0.0). ERα band intensity was normalized to that housekeeping protein for respective samples. The % ER remaining was calculated by normalizing against the vehicle control (as 100%).

[2] = tested on: subcutaneous MCF7-Y537S xenografts; assay: In-vivo efficacy in MCF7-Y537S mice xenografts; design: species or system female athymic nude mice; settings: for % Tumor growth inhibition compared to vehicle group after 28 days: p.o., once daily
Experimental: In-Vivo Efficacy of Compound of Formula I and Compound of Formula Ia: […]
The efficacy of the compound of Formula I and the compound of Formula Ia were evaluated in female athymic nude mice harboring subcutaneous MCF7-Y537S xenografts. Dose formulations of the compound of Formula I and the compound of Formula Ia were prepared in Tween 80 (0.4% v/v of the total volume of suspension) in 0.5% w/v carboxymethylcellulose (CMC) and administered once daily orally for 28 days. Two perpendicular diameters of tumor were measured with digital Vernier caliper. Tumor volume (V) was calculated using the following equation: V=(a^2×b)/2, where “a” is the width of the tumor (small diameter), and “b” the length (large diameter), both in millimeters. Tumors were monitored twice weekly and compared with a vehicle treated group.

Compound | SERD activity (in words) [1] | % of ER-α remaining at 1 nM [1] [%] | other results
CC1=C(c2cc(F)cc(F)c2)C(c2ccc(/C=C/CN3CC(CF)C3)cc2)Oc2ccc(O)cc21 (racemic) [Compound 2, 3-(3,5-difluorophenyl)-2-[4-[(E)-3-[3-(fluoromethyl)azetidin-1-yl]prop-1-enyl]phenyl]-4-methyl-2H-chromen-6-ol] | complete loss of the SERD activity | 100 | –
CC1=C(c2cc(F)cc(F)c2)C(c2ccc(/C=C/CN3CCC(CF)CC3)cc2)Oc2cc(O)ccc21 (racemic) [Compound 3, 3-(3,5-difluorophenyl)-2-{4-[(E)-3-(4-fluoromethylpiperidin-1-yl)propenyl]phenyl}-4-methyl-2H-chromen-7-ol] | negligible SERD activity | – | –
CC1=C(c2cc(F)cc(F)c2)C(c2ccc(/C=C/CN3CC[C@@H](CF)C3)cc2)Oc2cc(O)ccc21 (mixture of isomers) [Compound 4, 3-(3,5-difluorophenyl)-2-[4-[(E)-3-[(3R)-3-(fluoromethyl)pyrrolidin-1-yl]prop-1-enyl]phenyl]-4-methyl-2H-chromen-7-ol] | negligible SERD activity | – | –
CC1=C(c2cc(F)cc(F)c2)C(c2ccc(/C=C/CN3CC[C@@H](C)C3)cc2)Oc2cc(O)ccc21 (mixture of isomers) [Compound 5, 3-(3,5-difluorophenyl)-4-methyl-2-[4-[(E)-3-[(3R)-3-methylpyrrolidin-1-yl]prop-1-enyl]phenyl]-2H-chromen-7-ol] | negligible SERD activity | – | –
CC1=C(c2cc(F)cc(F)c2)C(c2ccc(/C=C\CN3CC(CF)C3)cc2)Oc2cc(O)ccc21 (racemic) [Compound 6, 3-(3,5-difluorophenyl)-2-{4-[(Z)-3-(3-fluoromethylazetidin-1-yl)propenyl]phenyl}-4-methyl-2H-chromen-7-ol] | very negligible SERD activity | 80.8 | –
CC1=C(c2cc(F)cc(F)c2)C(c2ccc(C#CCN3CC(CF)C3)cc2)Oc2cc(O)ccc21 (racemic) [Compound 7, 3-(3,5-difluorophenyl)-2-[4-[3-[3-(fluoromethyl)azetidin-1-yl]prop-1-ynyl]phenyl]-4-methyl-2H-chromen-7-ol] | complete loss of SERD activity | 100 | –
CC1=C(c2cc(F)cc(F)c2)C(c2ccc(/C=C/CN3CC(CF)C3)cc2)Oc2cc(O)ccc21 (racemic) [Formula I, 3-(3,5-difluorophenyl)-2-[4-[(E)-3-[3-(fluoromethyl)azetidin-1-yl]prop-1-enyl]phenyl]-4-methyl-2H-chromen-7-ol] | – | – | % Tumor growth inhibition compared to vehicle group after 28 days ([2]; 50 mg/kg): 46%; % Tumor growth inhibition compared to vehicle group after 28 days ([2]; 100 mg/kg): 57%; Tumor growth compared to the vehicle group (in words) ([2]; once daily orally for 28 days): significant reduction in the tumor growth

From patent publication US11014915B2, “Selective estrogen receptor degrader” (SUN PHARMA ADVANCED RESEARCH COMPANY LIMITED, priority 2019, dated 2021)
